pIC50: −log10 of the molar value. Where a SMILES comes first, the peptide text is derived from it. Bridges are numbered along the chain shown (N, C = ends). [ ]: non-standard residue; d: D form. hMet = CSCCC[C@H](N)C(=O)O
Legend:
[1] = biological target: T1, Nicotinic acetylcholine receptor alpha6/alpha3/beta4 (Rattus norvegicus, UniProt P04757+P12392+P43143); test: Antagonist activity at rat alpha6/alpha3beta4 nACHR expressed in xenopous laevis oocyte assessed as inhibition of ACh induced channel current after 5 mins at -70 mV holding potential by two electrode voltage clamp method
T1 sequence (P04757 whole entry): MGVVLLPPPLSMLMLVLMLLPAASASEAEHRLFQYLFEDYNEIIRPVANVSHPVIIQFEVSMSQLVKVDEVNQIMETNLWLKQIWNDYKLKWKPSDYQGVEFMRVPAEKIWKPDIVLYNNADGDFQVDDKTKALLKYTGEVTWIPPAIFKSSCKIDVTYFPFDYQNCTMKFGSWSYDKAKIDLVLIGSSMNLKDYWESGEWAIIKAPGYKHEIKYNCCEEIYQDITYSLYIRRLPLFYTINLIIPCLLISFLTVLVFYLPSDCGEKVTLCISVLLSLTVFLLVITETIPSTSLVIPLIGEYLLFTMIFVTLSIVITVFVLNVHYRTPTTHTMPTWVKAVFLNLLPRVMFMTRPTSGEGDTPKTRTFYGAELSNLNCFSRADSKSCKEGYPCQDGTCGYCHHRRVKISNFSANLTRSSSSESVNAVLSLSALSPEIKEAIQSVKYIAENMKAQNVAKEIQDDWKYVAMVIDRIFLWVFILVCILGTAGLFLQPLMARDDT
T1 sequence (P12392 whole entry): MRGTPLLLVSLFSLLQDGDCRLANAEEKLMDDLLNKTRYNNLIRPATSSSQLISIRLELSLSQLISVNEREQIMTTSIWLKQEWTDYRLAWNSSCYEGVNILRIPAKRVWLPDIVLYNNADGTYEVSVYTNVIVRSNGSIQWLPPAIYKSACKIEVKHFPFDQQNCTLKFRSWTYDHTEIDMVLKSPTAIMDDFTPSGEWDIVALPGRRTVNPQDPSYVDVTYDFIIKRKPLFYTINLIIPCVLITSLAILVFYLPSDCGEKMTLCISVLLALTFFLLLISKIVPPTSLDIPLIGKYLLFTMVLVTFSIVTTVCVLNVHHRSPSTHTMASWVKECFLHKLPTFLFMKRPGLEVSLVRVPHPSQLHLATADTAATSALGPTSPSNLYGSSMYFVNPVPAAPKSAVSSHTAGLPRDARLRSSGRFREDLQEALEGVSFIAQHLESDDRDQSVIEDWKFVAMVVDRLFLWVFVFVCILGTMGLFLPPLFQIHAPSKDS
T1 sequence (P43143 whole entry): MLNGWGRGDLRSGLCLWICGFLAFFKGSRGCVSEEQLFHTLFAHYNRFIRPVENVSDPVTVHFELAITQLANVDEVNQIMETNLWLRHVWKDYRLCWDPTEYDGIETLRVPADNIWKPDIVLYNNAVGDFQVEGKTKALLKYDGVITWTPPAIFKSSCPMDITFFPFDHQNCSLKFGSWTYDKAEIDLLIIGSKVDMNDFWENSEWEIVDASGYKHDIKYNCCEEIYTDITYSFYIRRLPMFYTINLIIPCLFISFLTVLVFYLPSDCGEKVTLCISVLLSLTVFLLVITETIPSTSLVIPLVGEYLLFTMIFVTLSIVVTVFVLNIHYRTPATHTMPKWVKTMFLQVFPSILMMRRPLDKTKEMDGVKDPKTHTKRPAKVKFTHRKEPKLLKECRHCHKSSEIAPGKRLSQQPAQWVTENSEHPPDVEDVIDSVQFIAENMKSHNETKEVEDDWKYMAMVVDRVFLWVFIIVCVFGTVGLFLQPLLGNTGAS

[2] = biological target: T2, Neuronal acetylcholine receptor; alpha3/beta4 (Rattus norvegicus, UniProt P04757+P12392); test: Antagonist activity at rat alpha3beta4 nACHR expressed in xenopous laevis oocyte assessed as inhibition of ACh induced channel current after 5 mins at -70 mV holding potential by two electrode voltage clamp method
T2 sequence (P04757 whole entry): as the sequence (P04757 whole entry) above
T2 sequence (P12392 whole entry): as the sequence (P12392 whole entry) above

[3] = biological target: T1, Nicotinic acetylcholine receptor alpha6/alpha3/beta4; test: Antagonist activity at rat alpha6/alpha3beta4 nACHR expressed in xenopous laevis oocyte assessed as inhibition of ACh induced channel current at -80 mV holding potential by two electrode voltage clamp method
Rattus norvegicus [4] = species on record: Rattus norvegicus; test: Selectivity ratio of IC50 for rat alpha6/alpha3beta4 nACHR expressed in xenopous laevis oocyte at -80 mV holding potential to IC50 for rat alpha3beta4 nACHR expressed in xenopous laevis oocyte at -80 mV holding potential
[5] = biological target: T2, Neuronal acetylcholine receptor; alpha3/beta4; test: Antagonist activity at rat alpha3beta4 nACHR expressed in xenopous laevis oocyte assessed as inhibition of ACh induced channel current at -80 mV holding potential by two electrode voltage clamp method
[6] = biological target: T1, Nicotinic acetylcholine receptor alpha6/alpha3/beta4; test: Antagonist activity at rat alpha6/alpha3beta4 nACHR expressed in xenopous laevis oocyte assessed as inhibition of ACh induced channel current at -70 mV holding potential by two electrode voltage clamp method
Rattus norvegicus [7] = species on record: Rattus norvegicus; test: Selectivity ratio of IC50 for rat alpha6/alpha3beta4 nACHR expressed in xenopous laevis oocyte at -70 mV holding potential to IC50 for rat alpha3beta4 nACHR expressed in xenopous laevis oocyte at -70 mV holding potential
[8] = biological target: T2, Neuronal acetylcholine receptor; alpha3/beta4; test: Antagonist activity at rat alpha3beta4 nACHR expressed in xenopous laevis oocyte assessed as inhibition of ACh induced channel current at -70 mV holding potential by two electrode voltage clamp method
[9] = biological target: Neuronal acetylcholine receptor; alpha4/beta2 (Rattus norvegicus, UniProt P09483+P12390); test: Antagonist activity at rat alpha4beta2 nACHR expressed in xenopous laevis oocyte assessed as inhibition of ACh induced channel current after 5 mins at -70 mV holding potential by two electrode voltage clamp method
[10] = biological target: Neuronal acetylcholine receptor; alpha3/beta2 (Rattus norvegicus, UniProt P04757+P12390); test: Antagonist activity at rat alpha3beta2 nACHR expressed in xenopous laevis oocyte assessed as inhibition of ACh induced channel current after 5 mins at -70 mV holding potential by two electrode voltage clamp method
[11] = biological target: Nicotinic acetylcholine receptor alpha9/alpha10 (Rattus norvegicus, UniProt P43144+Q9JLB5); test: Antagonist activity at rat alpha9alpha10 nACHR expressed in xenopous laevis oocyte assessed as inhibition of ACh induced channel current after 5 mins at -70 mV holding potential by two electrode voltage clamp method
[12] = biological target: Neuronal acetylcholine receptor; alpha4/beta4 (Rattus norvegicus, UniProt P09483+P12392); test: Antagonist activity at rat alpha4beta4 nACHR expressed in xenopous laevis oocyte assessed as inhibition of ACh induced channel current after 5 mins at -70 mV holding potential by two electrode voltage clamp method
[13] = biological target: Neuronal acetylcholine receptor; alpha2/beta2 (Rattus norvegicus, UniProt P12389+P12390); test: Antagonist activity at rat alpha2beta2 nACHR expressed in xenopous laevis oocyte assessed as inhibition of ACh induced channel current after 5 mins at -70 mV holding potential by two electrode voltage clamp method
Sequence of Neuronal acetylcholine receptor; alpha2/beta2 (P12389 whole entry): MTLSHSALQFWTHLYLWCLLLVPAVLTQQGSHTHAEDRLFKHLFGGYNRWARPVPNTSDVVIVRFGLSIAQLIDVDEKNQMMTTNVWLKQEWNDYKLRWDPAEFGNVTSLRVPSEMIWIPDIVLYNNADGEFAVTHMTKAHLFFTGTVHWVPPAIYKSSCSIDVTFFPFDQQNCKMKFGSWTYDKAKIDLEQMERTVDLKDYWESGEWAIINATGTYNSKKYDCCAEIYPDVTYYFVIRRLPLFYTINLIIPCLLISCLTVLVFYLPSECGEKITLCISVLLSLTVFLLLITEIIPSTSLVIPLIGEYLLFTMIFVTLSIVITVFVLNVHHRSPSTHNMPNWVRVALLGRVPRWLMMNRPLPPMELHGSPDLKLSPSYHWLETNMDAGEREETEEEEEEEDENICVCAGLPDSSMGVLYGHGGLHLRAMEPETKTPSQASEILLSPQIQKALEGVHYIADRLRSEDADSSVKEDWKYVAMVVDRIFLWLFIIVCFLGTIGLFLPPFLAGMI
Sequence of Neuronal acetylcholine receptor; alpha2/beta2 (P12390 whole entry): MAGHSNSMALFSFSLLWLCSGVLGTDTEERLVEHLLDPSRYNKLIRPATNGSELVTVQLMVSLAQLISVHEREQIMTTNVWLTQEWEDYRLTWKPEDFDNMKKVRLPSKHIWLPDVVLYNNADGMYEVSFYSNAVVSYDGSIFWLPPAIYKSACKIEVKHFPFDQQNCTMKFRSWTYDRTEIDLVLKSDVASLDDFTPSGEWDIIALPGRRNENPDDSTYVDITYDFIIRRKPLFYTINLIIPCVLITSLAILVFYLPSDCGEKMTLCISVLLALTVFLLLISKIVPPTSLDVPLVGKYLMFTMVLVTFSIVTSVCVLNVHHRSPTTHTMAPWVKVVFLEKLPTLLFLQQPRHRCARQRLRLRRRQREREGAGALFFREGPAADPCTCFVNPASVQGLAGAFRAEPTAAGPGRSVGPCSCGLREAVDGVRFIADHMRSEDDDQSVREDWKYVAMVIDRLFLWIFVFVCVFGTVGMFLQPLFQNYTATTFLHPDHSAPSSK

[14] = biological target: Neuronal acetylcholine receptor; alpha2/beta4 (Rattus norvegicus, UniProt P12389+P12392); test: Antagonist activity at rat alpha2beta4 nACHR expressed in xenopous laevis oocyte assessed as inhibition of ACh induced channel current after 5 mins at -70 mV holding potential by two electrode voltage clamp method
Sequence of Neuronal acetylcholine receptor; alpha2/beta4 (P12389 whole entry): as the sequence (P12389 whole entry) above
Sequence of Neuronal acetylcholine receptor; alpha2/beta4 (P12392 whole entry): as the sequence (P12392 whole entry) above

[15] = biological target: Neuronal acetylcholine receptor subunit alpha-7 (Rattus norvegicus, UniProt Q05941); test: Antagonist activity at rat alpha7 nACHR expressed in xenopous laevis oocyte assessed as inhibition of ACh induced channel current after 5 mins at -70 mV holding potential by two electrode voltage clamp method
Sequence of Neuronal acetylcholine receptor subunit alpha-7 (Q05941 whole entry): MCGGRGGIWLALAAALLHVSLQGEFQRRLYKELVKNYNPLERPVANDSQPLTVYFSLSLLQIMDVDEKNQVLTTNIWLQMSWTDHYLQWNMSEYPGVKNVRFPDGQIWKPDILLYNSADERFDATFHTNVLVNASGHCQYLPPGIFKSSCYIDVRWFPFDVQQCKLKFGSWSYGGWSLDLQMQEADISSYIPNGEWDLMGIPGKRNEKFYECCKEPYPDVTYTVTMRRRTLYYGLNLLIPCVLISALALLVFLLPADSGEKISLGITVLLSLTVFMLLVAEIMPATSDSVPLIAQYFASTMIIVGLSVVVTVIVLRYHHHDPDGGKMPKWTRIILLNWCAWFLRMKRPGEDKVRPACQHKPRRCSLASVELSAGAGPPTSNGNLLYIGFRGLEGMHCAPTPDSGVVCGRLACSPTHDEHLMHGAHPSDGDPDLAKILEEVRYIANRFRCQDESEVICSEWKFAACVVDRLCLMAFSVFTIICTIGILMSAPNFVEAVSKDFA

Compound | pIC50 [1] | pIC50 [2] | also measured
CC[C@H](C)[C@@H]1NC(=O)[C@@H]2CCCN2C(=O)[C@H](CO)NC(=O)[C@H](CCCSC)NC(=O)[C@H](C)NC(=O)[C@H](CO)NC(=O)[C@@H]2CSSC[C@H](NC(=O)CN)C(=O)N[C@@H](CSSC[C@@H](C(N)=O)NC1=O)C(=O)N[C@@H](CO)C(=O)N[C@@H](Cc1cnc[nH]1)C(=O)N[C@@H](C)C(=O)N[C@@H](C(C)C)C(=O)N2 (H-GCCSHAVCSA[hMet]SPIC-NH2; disulfide 2-8, 3-15) | < 5.00 | < 5.00 | –
CSCCC[C@@H]1NC(=O)[C@H](C)NC(=O)[C@H](CO)NC(=O)[C@@H]2CSSC[C@H](NC(=O)CN)C(=O)N[C@@H](CSSC[C@@H](C(N)=O)NC(=O)[C@H](C)NC(=O)[C@@H]3CCCN3C(=O)[C@H](CO)NC1=O)C(=O)N[C@@H](CO)C(=O)N[C@@H](Cc1cnc[nH]1)C(=O)N1CCC[C@H]1C(=O)N[C@@H](C(C)C)C(=O)N2 (H-GCCSHPVCSA[hMet]SPAC-NH2; disulfide 2-8, 3-15) | 7.34 | 7.79 | –
CC[C@H](C)[C@@H]1NC(=O)[C@@H]2CCCN2C(=O)[C@H](CO)NC(=O)[C@H](CCCSC)NC(=O)[C@H](C)NC(=O)[C@H](CO)NC(=O)[C@@H]2CSSC[C@H](NC(=O)[C@H](C)N)C(=O)N[C@@H](CSSC[C@@H](C(N)=O)NC1=O)C(=O)N[C@@H](CO)C(=O)N[C@@H](Cc1cnc[nH]1)C(=O)N1CCC[C@H]1C(=O)N[C@@H](C(C)C)C(=O)N2 (H-ACCSHPVCSA[hMet]SPIC-NH2; disulfide 2-8, 3-15) | 6.56 | 7.21 | –
CC[C@H](C)[C@@H]1NC(=O)[C@H](C)NC(=O)[C@H](CO)NC(=O)[C@H](CCCSC)NC(=O)[C@H](C)NC(=O)[C@H](CO)NC(=O)[C@@H]2CSSC[C@H](NC(=O)CN)C(=O)N[C@@H](CSSC[C@@H](C(N)=O)NC1=O)C(=O)N[C@@H](CO)C(=O)N[C@@H](Cc1cnc[nH]1)C(=O)N1CCC[C@H]1C(=O)N[C@@H](C(C)C)C(=O)N2 (H-GCCSHPVCSA[hMet]SAIC-NH2; disulfide 2-8, 3-15) | < 5.00 | < 5.00 | –
CSCCC[C@@H]1NC(=O)[C@H](C)NC(=O)[C@H](CO)NC(=O)[C@@H]2CSSC[C@H](NC(=O)CN)C(=O)N[C@@H](CSSC[C@@H](C(N)=O)NC(=O)[C@H](CC(=O)O)NC(=O)[C@@H]3CCCN3C(=O)[C@H](CO)NC1=O)C(=O)N[C@@H](CO)C(=O)N[C@@H](Cc1cnc[nH]1)C(=O)N1CCC[C@H]1C(=O)N[C@@H](C(C)C)C(=O)N2 (H-GCCSHPVCSA[hMet]SPDC-NH2; disulfide 2-8, 3-15) | 7.17 | 8.04 | –
CC[C@H](C)[C@@H]1NC(=O)[C@@H]2CCCN2C(=O)[C@H](CO)NC(=O)[C@H](CCCSC)NC(=O)[C@H](C)NC(=O)[C@H](CO)NC(=O)[C@@H]2CSSC[C@H](NC(=O)CN)C(=O)N[C@@H](CSSC[C@@H](C(N)=O)NC1=O)C(=O)N[C@@H](C)C(=O)N[C@@H](Cc1cnc[nH]1)C(=O)N1CCC[C@H]1C(=O)N[C@@H](C(C)C)C(=O)N2 (H-GCCAHPVCSA[hMet]SPIC-NH2; disulfide 2-8, 3-15) | 7.19 | 7.97 | –
CC(C)C[C@@H]1NC(=O)[C@H](C(C)C)NC(=O)[C@H](C)NC(=O)[C@@H]2CSSC[C@H](NC(=O)CN)C(=O)N[C@@H](CSSC[C@H](C(N)=O)NC(=O)[C@H](Cc3ccc(O)cc3)NC1=O)C(=O)N[C@@H](CO)C(=O)N[C@@H](C)C(=O)N[C@@H](CCCN)C(=O)N1CCC[C@H]1C(=O)N2 | 7.24 | 5.92 | –
CC[C@H](C)[C@@H]1NC(=O)[C@H](Cc2cnc[nH]2)NC(=O)[C@@H]2CCCN2C(=O)[C@H](CC(N)=O)NC(=O)[C@H](CC(N)=O)NC(=O)[C@H](C(C)C)NC(=O)[C@H](CC(N)=O)NC(=O)[C@@H]2CSSC[C@H](NC(=O)[C@@H](NC(=O)CN)CSSC[C@H](C(=O)O)NC1=O)C(=O)N[C@@H](CO)C(=O)N[C@@H](Cc1c[nH]cn1)C(=O)N1CCC[C@H]1C(=O)N[C@@H](C)C(=O)N2 | – | – | pIC50 [3]: 6.83; Ratio IC50 (Rattus norvegicus [4]): 3.1; pIC50 [5]: 7.33
C[C@@H]1NC(=O)[C@H](Cc2ccc(O)cc2)NC(=O)[C@@H]2CSSC[C@H](NC(=O)CN)C(=O)N[C@@H](CSSC[C@@H](C(N)=O)NC(=O)[C@H](CC(=O)O)NC(=O)[C@@H]3CCCN3C(=O)[C@H](CC(N)=O)NC(=O)[C@H]([C@@H](C)O)NC1=O)C(=O)N[C@@H](CO)C(=O)N[C@@H](Cc1ccc(O)cc1)C(=O)N1CCC[C@H]1C(=O)N1CCC[C@H]1C(=O)N2 (H-GCCSYPPCYATNPDC-NH2; disulfide 2-8, 3-15) | – | 6.12 | –
CC[C@H](C)[C@@H]1NC(=O)[C@H](CO)NC(=O)[C@@H]2CSSC[C@H](NC(=O)CN)C(=O)N[C@@H](CSSC[C@@H](C(N)=O)NC(=O)[C@H]([C@@H](C)CC)NC(=O)[C@@H]3CCCN3C(=O)[C@H](CO)NC(=O)[C@H](CCCSC)NC1=O)C(=O)N[C@@H](CO)C(=O)N[C@@H](Cc1cnc[nH]1)C(=O)N1CCC[C@H]1C(=O)N[C@@H](C(C)C)C(=O)N2 (H-GCCSHPVCSI[hMet]SPIC-NH2; disulfide 2-8, 3-15) | 7.30 | 7.13 | –
CC(C)C[C@@H]1NC(=O)[C@H](C(C)C)NC(=O)[C@H](C)NC(=O)[C@@H]2CSSC[C@H](NC(=O)CN)C(=O)N[C@@H](CSSC[C@H](C(N)=O)NC(=O)[C@H](Cc3ccc(O)cc3)NC1=O)C(=O)N[C@@H](CO)C(=O)N[C@@H]([C@@H](C)O)C(=O)N1CCC[C@H]1C(=O)N1CCC[C@H]1C(=O)N2 | – | – | pIC50 [6]: 8.81; Ratio IC50 (Rattus norvegicus [7]): 0.056; pIC50 [8]: 7.56
CC[C@H](C)[C@@H]1NC(=O)[C@@H]2CCCN2C(=O)[C@H](CO)NC(=O)[C@H](CCCSC)NC(=O)[C@H](C)NC(=O)[C@H](CO)NC(=O)[C@@H]2CSSC[C@H](NC(=O)CN)C(=O)N[C@@H](CSSC[C@@H](C(N)=O)NC1=O)C(=O)N[C@@H](CO)C(=O)N[C@@H](C)C(=O)N1CCC[C@H]1C(=O)N[C@@H](C(C)C)C(=O)N2 (H-GCCSAPVCSA[hMet]SPIC-NH2; disulfide 2-8, 3-15) | < 5.00 | < 5.00 | –
CC[C@H](C)[C@@H]1NC(=O)[C@@H]2CCCN2C(=O)[C@H](CO)NC(=O)[C@H](CCCSC)NC(=O)[C@H](C)NC(=O)[C@H](C)NC(=O)[C@@H]2CSSC[C@H](NC(=O)CN)C(=O)N[C@@H](CSSC[C@@H](C(N)=O)NC1=O)C(=O)N[C@@H](CO)C(=O)N[C@@H](Cc1cnc[nH]1)C(=O)N1CCC[C@H]1C(=O)N[C@@H](C(C)C)C(=O)N2 (H-GCCSHPVCAA[hMet]SPIC-NH2; disulfide 2-8, 3-15) | – | – | pIC50 [9]: < 5.00; pIC50 [10]: < 5.00; pIC50 [11]: < 5.00; pIC50 [12]: < 5.00; pIC50 [13]: < 5.00; pIC50 [14]: < 5.00; pIC50 [15]: < 5.00
CSCCC[C@@H]1NC(=O)[C@H](C)NC(=O)[C@H](CO)NC(=O)[C@@H]2CSSC[C@H](NC(=O)CN)C(=O)N[C@@H](CSSC[C@@H](C(N)=O)NC(=O)[C@H](Cc3ccc(O)cc3)NC(=O)[C@@H]3CCCN3C(=O)[C@H](CO)NC1=O)C(=O)N[C@@H](CO)C(=O)N[C@@H](Cc1cnc[nH]1)C(=O)N1CCC[C@H]1C(=O)N[C@@H](C(C)C)C(=O)N2 (H-GCCSHPVCSA[hMet]SPYC-NH2; disulfide 2-8, 3-15) | 7.41 | 8.00 | –
CC[C@H](C)[C@@H]1NC(=O)[C@H](Cc2cnc[nH]2)NC(=O)[C@@H]2CCCN2C(=O)[C@H](C)NC(=O)[C@H](C)NC(=O)[C@H](C(C)C)NC(=O)[C@H](CC(N)=O)NC(=O)[C@@H]2CSSC[C@H](NC(=O)[C@@H](NC(=O)CN)CSSC[C@H](C(=O)O)NC1=O)C(=O)N[C@@H](CO)C(=O)N[C@@H](Cc1c[nH]cn1)C(=O)N1CCC[C@H]1C(=O)N[C@@H](C)C(=O)N2 | – | – | pIC50 [3]: 5.29; Ratio IC50 (Rattus norvegicus [4]): 14; pIC50 [5]: 6.43
CSCCC[C@@H]1NC(=O)[C@H](C)NC(=O)[C@H](CO)NC(=O)[C@@H]2CSSC[C@H](NC(=O)CN)C(=O)N[C@@H](CSSC[C@@H](C(N)=O)NC(=O)[C@H](CCCNC(=N)N)NC(=O)[C@@H]3CCCN3C(=O)[C@H](CO)NC1=O)C(=O)N[C@@H](CO)C(=O)N[C@@H](Cc1cnc[nH]1)C(=O)N1CCC[C@H]1C(=O)N[C@@H](C(C)C)C(=O)N2 (H-GCCSHPVCSA[hMet]SPRC-NH2; disulfide 2-8, 3-15) | 7.39 | 8.01 | –
